Laboratory results from patent publication US7186728B2, “Methylene-4-azasteroids” (Schering AG, priority 2001, dated 2007).

Tested on: action of testosterone propionate (TP) on the growth of the seminal vesicle and prostate
Assay: Antiandrogenic activity: inhibition of testosterone propionate (TP) action on accessory genital gland growth in castrated immature male rats
Format: in vivo, rat
Conditions: for Effects of testosterone propionate, TP, on the prostate and seminal vesicle (in words): castrated immature male rats, TP + compound; for Inhibition of the action of testosterone propionate (TP) on the growth of the prostate / Inhibition of the action of testosterone propionate (TP) on the growth of the seminal vesicle: sexually immature castrated male rats, TP 0.1 mg/animal/day s.c. + 5α-reductase inhibitor 1 mg/animal/day s.c., 7 days, difference vehicle controls and TP controls = 100%
Method: Evaluation of antiandrogenic activity of the compounds of the invention was performed in castrated male rats (see FIGS. 1 to 5/table). Castrated immature male rats were treated for 7 days with testosterone propionate (TP) and the substances of the invention (0.1 mg of TP alone and/or 1 mg of 5α-reductase inhibitor/animal/day, s.s., n=5–10/group). The treatment with TP caused a severe increase in weight of the accessory genital glands (prostate and seminal vesicle). In the animals treated with the vehicle and with 5α-reductase inhibitor alone, the weights of the examined organs remained at low values. The substances of the invention exerted an inhibitory effect in the test systems selected. […] [table]

SMILES: CN1C(=O)CC[C@@H]2C3CC[C@]4(C)/C(=C/Cl)CCC4C3CC[C@H]21 (stereo partly drawn) [J 1879]
- Effects of testosterone propionate, TP, on the prostate and seminal vesicle (in words): appreciably reduced
- Inhibition of the action of testosterone propionate (TP) on the growth of the prostate: 34%
- Inhibition of the action of testosterone propionate (TP) on the growth of the seminal vesicle: 25%

SMILES: CN1C(=O)CC[C@]2(C)C3CC[C@]4(C)/C(=C/Cl)CCC4C3CC[C@@H]12 (stereo partly drawn) [J 1924]
- Effects of testosterone propionate, TP, on the prostate and seminal vesicle (in words): appreciably reduced
- Inhibition of the action of testosterone propionate (TP) on the growth of the prostate: 39%
- Inhibition of the action of testosterone propionate (TP) on the growth of the seminal vesicle: 41%
